The NIST ThermoML archive (doi:10.1021/je901067c)
Numbers after ± are expanded uncertainties.

Assays:
[1] = xn = mol fraction of the nth substance listed; settings: 101 kPa, Liquid; for viscosity: Capillary tube (Ostwald / Ubbelohde) method
[2] = refractive index (Na D-line) (dimensionless); xn = mol fraction of the nth substance listed; settings: 101 kPa, Liquid, Standard Abbe refractometry

CCC(O)CC [3-pentanol] + CCC(C)=O
Settings | mass density, 298.15 K [kg/m3] | mass density, 308.15 K [kg/m3] | mass density, 318.15 K [kg/m3] | refractive index, 298.15 K | refractive index, 308.15 K | refractive index, 318.15 K | viscosity, 298.15 K [mPa·s] | viscosity, 308.15 K [mPa·s] | viscosity, 318.15 K [mPa·s]
[1], x2 = 0 | 815.79 ± 0.54 | 806.91 ± 0.56 | 797.66 ± 0.57 | – | – | – | 4.625 ± 0.034 | 2.864 ± 0.022 | 1.902 ± 0.015
[1], x2 = 0.0843 | 813.43 ± 0.55 | 804.58 ± 0.56 | 795.034 ± 0.57 | – | – | – | 2.842 ± 0.022 | 1.965 ± 0.015 | 1.382 ± 0.011
[1], x2 = 0.1622 | 811.5 ± 0.55 | 802.6 ± 0.56 | 792.888 ± 0.57 | – | – | – | 2.007 ± 0.015 | 1.476 ± 0.012 | 0.9911 ± 0.0086
[1], x2 = 0.2428 | 809.72 ± 0.55 | 800.57 ± 0.56 | 790.723 ± 0.57 | – | – | – | 1.494 ± 0.012 | 1.151 ± 0.01 | 0.7246 ± 0.0069
[1], x2 = 0.3505 | 807.45 ± 0.55 | 798.07 ± 0.57 | 788.175 ± 0.58 | – | – | – | 1.084 ± 0.009 | 0.869 ± 0.008 | 0.5197 ± 0.0058
[1], x2 = 0.4415 | 805.82 ± 0.56 | 796.23 ± 0.57 | 786.285 ± 0.58 | – | – | – | 0.86 ± 0.008 | 0.717 ± 0.007 | 0.417 ± 0.0053
[1], x2 = 0.5584 | 803.92 ± 0.56 | 794.1 ± 0.57 | 784.161 ± 0.58 | – | – | – | 0.677 ± 0.007 | 0.578 ± 0.006 | 0.3306 ± 0.0049
[1], x2 = 0.6526 | 802.64 ± 0.56 | 792.64 ± 0.57 | 782.699 ± 0.58 | – | – | – | 0.591 ± 0.006 | 0.506 ± 0.006 | 0.2938 ± 0.0048
[1], x2 = 0.7399 | 801.72 ± 0.56 | 791.55 ± 0.57 | 781.619 ± 0.59 | – | – | – | 0.508 ± 0.006 | 0.448 ± 0.005 | 0.2919 ± 0.0048
[1], x2 = 0.854 | 800.8 ± 0.56 | 790.31 ± 0.58 | 780.165 ± 0.59 | – | – | – | 0.445 ± 0.005 | 0.396 ± 0.005 | 0.297 ± 0.0048
[1], x2 = 0.9383 | 800.16 ± 0.56 | 789.7 ± 0.58 | 779.212 ± 0.59 | – | – | – | 0.407 ± 0.005 | 0.365 ± 0.005 | 0.3106 ± 0.0048
[2], x2 = 0 | – | – | – | 1.4047 ± 0.0009 | 1.4029 ± 0.0009 | 1.3981 ± 0.0009 | – | – | –
[2], x2 = 0.0843 | – | – | – | 1.4032 ± 0.0009 | 1.4012 ± 0.0009 | 1.3965 ± 0.0009 | – | – | –
[2], x2 = 0.1622 | – | – | – | 1.4016 ± 0.0009 | 1.3995 ± 0.0009 | 1.3949 ± 0.0009 | – | – | –
[2], x2 = 0.2428 | – | – | – | 1.3999 ± 0.0009 | 1.3975 ± 0.0009 | 1.3929 ± 0.0009 | – | – | –
[2], x2 = 0.3505 | – | – | – | 1.3971 ± 0.0009 | 1.3944 ± 0.0009 | 1.3901 ± 0.0009 | – | – | –
[2], x2 = 0.4415 | – | – | – | 1.3945 ± 0.0009 | 1.3916 ± 0.0009 | 1.3873 ± 0.0009 | – | – | –
[2], x2 = 0.5584 | – | – | – | 1.3908 ± 0.0009 | 1.3876 ± 0.0009 | 1.3835 ± 0.0009 | – | – | –
[2], x2 = 0.6526 | – | – | – | 1.3876 ± 0.0009 | 1.3841 ± 0.0009 | 1.38 ± 0.0009 | – | – | –
[2], x2 = 0.7399 | – | – | – | 1.3846 ± 0.0009 | 1.3806 ± 0.0009 | 1.3767 ± 0.0009 | – | – | –
[2], x2 = 0.854 | – | – | – | 1.3803 ± 0.0009 | 1.376 ± 0.0009 | 1.372 ± 0.0009 | – | – | –
[2], x2 = 0.9383 | – | – | – | 1.3773 ± 0.0009 | 1.3725 ± 0.0009 | 1.3684 ± 0.0009 | – | – | –
